Experimental data from patent publication US8722703B2, “Fused amino pyridines for the treatment of brain tumors” (Curis, Inc., priority 2009, dated 2014).
Like-named read-outs stand apart in the source and are kept apart here.

Key:
[1] = test system: MV4-11 AML s.c. tumor; assay: Efficacy study in MV4-11 s.c. tumor model; format: in vivo, sever combined immunodeficient mice; settings: 160 mg/kg orally q2d, three weeks, pretreatment volume 146 mm^3
Text: In an efficacy study using MV4-11 s.c. tumor model (n=8), MV4-11 AML tumor cells (20×10^6) were implanted s.c. into sever combined immunodeficient mice.

[2] = test system: A549 subcutaneous tumors; assay: Pharmacodynamic study in K-ras-mutated A549 subcutaneous tumors; format: in vivo; settings: 160 mg/kg, 6- and 24-h time points
[3] = test system: H1975 NSCLC cells; assay: Western blot of H1975 NSCLC cells after short-term treatment; format: cell-based; settings: 1 μmol/L for 7 hours
[4] = test system: HSP90 client proteins in H1975 subcutaneous tumors; assay: Pharmacodynamic study in H1975 subcutaneous tumors, single dose; format: in vivo; settings: single dose 160 mg/kg
[5] = PK in mouse brain after i.v. and oral delivery, cassette study in HCT116 tumor-bearing mice; format: in vivo
[6] = test system: H1975 intracranial tumor; assay: Efficacy study in H1975 intracranial metastasis model; format: in vivo, nude mice; settings: Compound-15 120 mg/kg orally once every two days, lapatinib 75 mg/kg orally twice a day, 4 wk
[7] = test system: A549 subcutaneous tumor; assay: Efficacy study in A549 subcutaneous tumor model; format: in vivo, nude mice; settings: A549 s.c., 160 mg/kg orally once every two days
[8] = test system: H1975 subcutaneous tumor; assay: Efficacy study in the H1975 subcutaneous tumor model (80, 120, 160 mg/kg); format: in vivo, nude mice; settings: H1975 s.c., 80, 120, or 160 mg/kg orally once every 2 days
Text: Cells (3.5×106) were implanted subcutaneously into nude mice.

[9] = test system: H1975 NSCLC s.c. tumor; assay: Efficacy study in the H1975 s.c. tumor model (160 mg/kg q2d); format: in vivo, nude mice; settings: 160 mg/kg orally q2d, 3 wk
Method: H1975 NSCLC cells (5×10^6) were implanted s.c. into nude mice. Treatment with Compound-15 (160 mg/kg, orally, q2d) started when tumors reached an average volume of 160 mm^3.

[10] = test system: A549 orthotopic lung tumor; assay: Efficacy study in A549 orthotopic lung tumor model; format: in vivo, nude mice; settings: Compound-15 120 mg/kg orally once every two days, erlotinib 50 mg/kg orally once a day, 4 wk
[11] = test system: H1993 NSCLC cells; assay: Western blot of H1993 NSCLC cells after short-term treatment; format: cell-based; settings: 1 μmol/L for 7 hours
[12] = test system: cancer derived HSP90 complex (H1993 NSCLC cell extracts); assay: Fluorescence polarization geldanamycin competition binding with H1993 cell extract
[13] = test system: Colo205 colorectal cancer s.c. tumor; assay: Efficacy study in the Colo205 s.c. tumor model; format: in vivo, nude mice; settings: 120 mg/kg orally q2d
[14] = PK profile of compound 15 after oral 30 mg/kg, single dose study; format: in vivo, mice; settings: female, athymic nude (CD-1 nu/nu), mouse, plasma
Method: Female athymic nude (CD-1 nu/nu) were obtained from Charles River Laboratories (Wilmington, Mass.). They were housed in ventilated micro-isolator cages in Curis animal facility conditioned at temperature of 23±1° C., humidity of 50-70%, and a 12-hour light/12-hour dark cycle. The animals were fed with irradiated laboratory rodent diet ad libitum and provided with sterilized water. […] The cell pellet was diluted in HBSS (Hank's balanced salt solution) for implantation. […] The concentration for each compound in the solution was kept below 5 mg/ml. The maximum number of compound in one cassette was 6.30% Captisol (Cydex) was used for all formulation. At various time points (3 mice per time point) following compound administration, mice were euthanized with CO2, blood and tissues were collected. Blood was collected into tubes containing sodium heparin. The plasma was separated via centrifugation and stored at −40° C. before analysis. Tissues including tumors were homogenized in 0.8 ml water. An internal standard was added into the tissue homogenates. The homogenates were extracted with 1 ml ethyl acetate for three times. After evaporation, the residual was reconstituted in 0.1 ml acetonitrile for LC/MS/MS assay (Agilent HPLC 1100 Series).

[15] = test system: H1975 orthotopic lung tumor; assay: Efficacy study in the H1975 orthotopic lung tumor (NSCLC) model; format: in vivo, nude mice
Method: Dose-dependent efficacy study of Compound-15 in H1975 orthotopic lung tumor model (n=11): Mice were treated with Compound-15 (20, 40, 80, and 120 mg/kg) starting 4 day after tumor implantation.

[16] = test system: H1975 orthotopic lung tumors; assay: Pharmacodynamic study in H1975 orthotopic lung tumors; format: in vivo; settings: 160 mg/kg once
Text: Tumors were collected at various time points (n=2-3) and subjected to Western blot analysis.

[17] = test system: H1975 (NSCLC) s.c. tumors; assay: PD study after single oral dosing in H1975 (NSCLC) s.c. tumors; format: in vivo; settings: single oral dosing 80 mg/kg, 8 h
[18] = Mouse brain concentrations after oral 30 mg/Kg in nude mice with U87MG xenografts; format: in vivo
[19] = test system: cancer derived HSP90 complex (H1975 NSCLC cell extracts); assay: Fluorescence polarization geldanamycin competition binding with H1975 cell extract
[20] = test system: HSP90 client proteins in U87MG s.c. tumors; assay: Pharmacodynamic Western blot analysis of U87MG s.c. tumors; format: in vivo, nude mice; settings: U87MG s.c. tumors, 40, 80 or 160 mg/kg oral every other day, 21 days
[21] = then compound-free medium 0, 17 or 24 hours
[22] = female, athymic nude (CD-1 nu/nu), mouse, iv, i.v. delivery (Cassette Study), read-out: HSP90 Compounds in Mouse Brain
[23] = female, athymic nude (CD-1 nu/nu), mouse, oral delivery (10 mg/g Cassette Study), read-out: HSP90 Compounds in Mouse Brain

For `CN(C)c1cc2c(cc1Sc1nc3c(N)nccc3n1CCNCC(C)(C)C)OCO2` [Compound 15, 2-(6-(dimethylamino)benzo[d][1,3]dioxol-5-ylthio)-1-(2-(neopentylamino)ethyl)-1H-imidazo[4,5-c]pyridin-4-amine], the tumor regression [1] was “complete tumor regression”, the “HER2 and key components of the PI3K/AKT and RAF/MEK/ERK signaling pathways (Western blot)” value [2] was “Potent inhibition” and the “HSP70 (Western blot)” value [2] was “concurrent induction”. The “downstream PI3K/AKT and RAF/ERK signaling (p-AKT/AKT, p-ERK/ERK levels)” value [3] was “suppressed”, the “levels of phosphorylated-MET and total MET” value [3] was “reduced” and the “phosphorylated and total EGFR, MET, AKT, and MAPK (ERK)” value [3, 21] was “durably inhibited”. For the same compound, the “HSP70, a marker of HSP90 inhibition” value [4] was “concurrent induction”, the “HSP90 client proteins in tumors” value [4] was “potent inhibition” and the “mutant EGFR” value [4] was “induced degradation”. The “apoptosis (PARP and caspase-3 cleavages)” value ([4]; 6- and 24-hour time points) was “robustly induced apoptosis”, the concentration at 0.08333 hr ([5]; female, athymic nude (CD-1 nu/nu), mouse, iv, i.v. delivery (Cassette Study), Time 0.08333 hr, read-out: HSP90 Compounds in Mouse Brain) was 3240 ng/g and the concentration at 0.5 hr [5, 22] was 1450 ng/g. The concentration at 2 hr [5, 22] was 773 ng/g, the concentration at 6 hr [5, 22] was 177 ng/g and the concentration at 24 hr [5, 22] was 27 ng/g. For the same compound, the concentration at 48 hr [5, 22] was 4.8 ng/g, the concentration at 0.5 hr [5, 23] was 61.2 ng/g and the concentration at 2 hr [5, 23] was 256 ng/g. It also gave a concentration at 6 hr [5, 23] of 218 ng/g, a concentration at 24 hr [5, 23] of 5.9 ng/g and a concentration at 48 hr [5, 23] of 0.7 ng/g. For the same compound, the “AUC i.v. in the brain” value ([5]; i.v.) was 6761.3 ng·h/g, the “AUC p.o. in the brain” value ([5]; p.o.) was 3293.9 ng·h/g and the “F (%) in the brain” value ([5]; p.o. vs i.v.) was 24.4%. The animal survival [6] was “significantly prolonged animal survival”, the T/C [7] was 9.5% and the tumor growth [7] was “Tumor stasis”. The body weight [8] was “without significant loss”, the tumor growth [8] was “Dose-dependent inhibition” and the T/C [9] was 15.4%. For the same compound, the animal survival [10] was “significantly prolonged animal survival”, the “downstream PI3K/AKT and RAF/ERK signaling (p-AKT/AKT, p-ERK/ERK levels)” value [11] was “suppressed” and the “levels of phosphorylated-MET and total MET” value [11] was “reduced”. The “phosphorylated and total EGFR, MET, AKT, and MAPK (ERK)” value [11, 21] was “durably inhibited”, the IC50 [12] was 74.2 nM and the T/C [13] was 14.2%. The AUC(0-inf) [14] was 10500 ng·h/mL, the Cmax [14] was 1380 ng/mL and the Tmax [14] was 2 h. The half-life [14] was 3.3 h, the AUC(0-t) ([14]; read-out: AUC0-24) was 10400 ng·h/mL and the “animal survival, dose dependence” value ([15]; 20, 40, 80, and 120 mg/kg, 5-wk dosing regimen) was “dose-dependently extended animal survival”. For the same compound, the animal survival ([15]; Compound-15 120 mg/kg orally once every two days, erlotinib 50 mg/kg orally once a day, 5 wk) was “significantly prolonged animal survival”, the “HSP70, apoptosis and phosphorylated-AKT in tumors (Western blot)” value [16] was “Sustained induction of HSP70 and apoptosis and inhibition of oncoprotein phosphorylated-AKT” and the “EGFR and signaling molecules in tumors (Western blot)” value [17] was “inhibited”. The concentration at 0 hr ([18]; female, athymic nude (CD-1 nu/nu), mouse, brain, oral (30 mg/Kg) delivery, U87MG xenografts, Time 0 hr, read-out: HSP90 Compounds in Mouse Brain) was 0 ng/g, the concentration at 0.5 hr ([18]; female, athymic nude (CD-1 nu/nu), mouse, brain, oral (30 mg/Kg) delivery, U87MG xenografts, Time 0.5 hr, read-out: HSP90 Compounds in Mouse Brain) was 66.4 ng/g and the concentration at 1 hr ([18]; female, athymic nude (CD-1 nu/nu), mouse, brain, oral (30 mg/Kg) delivery, U87MG xenografts, Time 1 hr, read-out: HSP90 Compounds in Mouse Brain) was 124 ng/g. For the same compound, the concentration at 3 hr ([18]; female, athymic nude (CD-1 nu/nu), mouse, brain, oral (30 mg/Kg) delivery, U87MG xenografts, Time 3 hr, read-out: HSP90 Compounds in Mouse Brain) was 257 ng/g, the concentration at 6 hr ([18]; female, athymic nude (CD-1 nu/nu), mouse, brain, oral (30 mg/Kg) delivery, U87MG xenografts, Time 6 hr, read-out: HSP90 Compounds in Mouse Brain) was 77.8 ng/g and the concentration at 24 hr ([18]; female, athymic nude (CD-1 nu/nu), mouse, brain, oral (30 mg/Kg) delivery, U87MG xenografts, Time 24 hr, read-out: HSP90 Compounds in Mouse Brain) was 3.2 ng/g. For the same compound, the “crossing (into brain)” value ([18]; nude mice with U87MG xenografts, oral 30 mg/Kg) was “superior results”, the “AUC in mouse brain” value ([18]; oral (30 mg/Kg) delivery, U87MG xenografts) was 1692.2 ng·h/g and the IC50 [19] was 61.2 nM. The “HSP90 client proteins in tumors (Western blot)” value [20] was “dose-dependent inhibition”.
